Results published in patent US7157491B2, “Aryl-carbaldehyde oxime derivatives and their use as estrogenic agents” (Wyeth, priority 2003, dated 2007).

How the values were obtained:
human ERβ = biological target: T1, human ERβ (Homo sapiens, UniProt Q92731); experiment: Competition with [3H]-17β-estradiol for binding to ERβ ligand binding domain (E. coli lysate); conditions: 2 nM [3H]-17β-estradiol, 5-15 hours at room temperature; concentration that decreases total 17β-estradiol binding by 50%
T1 construct: made in house; host or cells: E. coli
T1 sequence (Q92731 264-498 limits assumed): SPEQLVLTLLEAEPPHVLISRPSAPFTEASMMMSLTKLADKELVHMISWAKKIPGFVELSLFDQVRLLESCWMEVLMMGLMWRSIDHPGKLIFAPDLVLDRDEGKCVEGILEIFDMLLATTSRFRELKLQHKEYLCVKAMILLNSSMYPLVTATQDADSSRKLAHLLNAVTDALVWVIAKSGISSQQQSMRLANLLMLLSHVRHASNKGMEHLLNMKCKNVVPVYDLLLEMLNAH
Protocol: (§1) Representative examples of the invention were evaluated for their ability to compete with 17β-estradiol for both ERα and ERβ. This test procedure provides the methodology for one to determine whether a particular compound binds to the estrogen receptor (and is therefore “estrogenic”) and whether there is selectivity for ERα or ERβ. […] 17β-estradiol is included as a standard reference for comparison. The procedure used is briefly described below. A crude lysate of E. coli expressing the estrogen receptor ligand binding domains (D, E, & F) of human ERα or ERβ was prepared. Both receptors and compounds were diluted in 1× Dulbecco's PBS (DPBS) supplemented with 1 mM EDTA. Using a high binding masked microtiter plate, 100 uL of receptor (1 uG/well) was combined with 2 nM [^3H]-17β-estradiol and various concentrations of compound. After between 5 and 15 hours at room temperature, the plates were washed with DPBS/1 mM EDTA and bound radioactivity determined by liquid scintillation counting.

human ERα = biological target: T2, human ERα (Homo sapiens, UniProt P03372); experiment: Competition with [3H]-17β-estradiol for binding to ERα ligand binding domain (E. coli lysate); conditions: 2 nM [3H]-17β-estradiol, 5-15 hours at room temperature; concentration that decreases total 17β-estradiol binding by 50%
T2 construct: made in house; host or cells: E. coli
T2 sequence (P03372 311-547 limits assumed): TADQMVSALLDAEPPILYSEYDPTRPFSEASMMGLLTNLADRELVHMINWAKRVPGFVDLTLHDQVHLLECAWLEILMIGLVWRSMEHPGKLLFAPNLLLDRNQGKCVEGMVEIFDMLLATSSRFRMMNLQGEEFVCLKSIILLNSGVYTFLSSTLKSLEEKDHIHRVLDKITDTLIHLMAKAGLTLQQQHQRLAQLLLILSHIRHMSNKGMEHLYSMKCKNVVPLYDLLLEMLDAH
Protocol: as §1

| Compound | melting point | IC50 (human ERβ) | IC50 (human ERα) |
| --- | --- | --- | --- |
| ON=Cc1ccc(-c2ccc(O)cc2)c2ccccc12 [Example 3, 4-(4-Hydroxyphenyl)-1-naphthaldehyde oxime] | 200 to 200.5 °C |  |  |
| ON=Cc1ccc(-c2ccc(O)c(F)c2)c2ccccc12 [Example 6, 4-(3-Fluoro-4-hydroxyphenyl)-naphthalene-1-carbaldehyde oxime] | 187 to 188 °C |  |  |
| ON=Cc1ccc(-c2ccc(O)cc2)c2ccsc12 [Example 12, 4-(4-Hydroxyphenyl)-1-benzothiophene-7-carbaldehyde oxime] | 229.5 to 230.5 °C |  |  |

More lines, now with the values ahead:

| melting point | IC50 (human ERβ) | IC50 (human ERα) | Compound |
| --- | --- | --- | --- |
| 230 to 231 °C |  |  | ON=Cc1ccc(-c2ccc(O)cc2)c2sccc12 [Example 19, 7-(4-Hydroxyphenyl)-1-benzothiophene-4-carbaldehyde oxime] |
| 216 to 217 °C |  |  | ON=Cc1ccc(-c2ccc(O)cc2)c2occc12 [Example 25, 7-(4-Hydroxyphenyl)-1-benzofuran-4-carbaldehyde oxime] |
| 219 to 220 °C |  |  | ON=Cc1ccc(-c2ccc(O)cc2)c2ccoc12 [Example 31, 4-(4-Hydroxyphenyl)-benzofuran-7-carbaldehyde oxime] |
|  | 0.326 µM | 3.22 µM | ON=Cc1cc(-c2ccc(O)cc2)cc2ccoc12 [Example 37, 5-(4-Hydroxyphenyl)-1-benzofuran-7-carbaldehyde oxime] |
| 192 to 194 °C | 2.21 µM | > 5 µM | ON=Cc1cc(-c2ccc(O)cc2)c2occc2c1 [Example 43, 7-(4-Hydroxyphenyl)-benzofuran-5-carbaldehyde oxime] |
